Reference: article PMC6522510 (Nature Communications, 2019)

Experiments:
Set-up in all cases: species or system AML cell lines (8); Primary HTS, single concentration about 10 uM, Cell Titer Glo viability; log10 luminescence, per cent inhibition relative to cycloheximide control
Settings in all cases: 72 h, relative to cycloheximide control, log10 luminescence; inhibitor
CHRF288-11 = tested on: CHRF288-11
CMK = tested on: CMK
CMS = tested on: CMS
M07e = tested on: M07e
ML-2 = tested on: ML-2
MOLM-13 = tested on: MOLM-13
MV4-11 = tested on: MV4-11
U937 = tested on: U937

Structure (SMILES) | CHRF288-11 %inh (CHRF288-11) | CMK %inh (CMK) | CMS %inh (CMS) | M07e %inh (M07e) | ML-2 %inh (ML-2) | MOLM-13 %inh (MOLM-13) | MV4-11 %inh (MV4-11) | U937 %inh (U937)
C[C@@H](Oc1cc(-n2cnc3ccc(OC[C@@H](O)CO)cc32)sc1C(N)=O)c1ccccc1Cl [SJ000573335-1, U22436/41/1] | 63.27% | 83.74% | 71.91% | 110.3% | 25.64% | 82.19% | 65.42% | 86.31%
Cc1ccc(NC(=O)c2ccnc(N3CCCC3)c2)cc1-c1ccc(C(=O)NCC2CC2)cc1 [SJ000573336-1, U23923/65/8] | -0.1983% | 0.1294% | -0.7437% | -0.5333% | -2.392% | 2.702% | 1.019% | 0.7829%
CCCN1CCCC(c2ccc(Nc3nc(Nc4cc(F)ccc4C(N)=O)c4cc[nH]c4n3)c(OC)c2)C1 (stereo not shown) [SJ000573337-1, U23441/128/1] | 108.4% | 49.26% | 31.15% | 41.75% | 69.05% | 102.6% | 85.37% | 43.81%
CCn1c(-c2nonc2N)nc2c(C#CC(C)(C)O)ncc(OCC3CCNCC3)c21 [SJ000573338-1, N3180-49-A1] | -0.2898% | 1.889% | 4.398% | -1.564% | 1.732% | 4.413% | 8.685% | 25.28%
CCn1c(-c2nonc2N)nc2c(C#CCN)ncc(OCCCN)c21 [SJ000573339-1, N3180-25-A1] | 1.457% | 3.187% | 4.589% | -1.392% | 0.8489% | 6.465% | 3.433% | 1.188%
CCn1c(-c2nonc2N)nc2c(C#CC(C)(C)O)ncc(OC3CCNCC3)c21 [SJ000573340-1, N2972-34-A1] | 8.441% | 1.4% | 5.982% | 6.128% | 4.911% | 25.8% | 14.73% | 50.59%
CCN(CC)Cc1ccc(Nc2nccc(-c3cnn4ncccc34)n2)cc1 [SJ000573341-1, U20497/10/4] | 61.01% | 90.23% | 102.8% | 122.1% | 56.99% | 89.9% | 77.95% | 77.76%
CCn1c(-c2nonc2N)nc2ccc(F)cc21 [SJ000573344-1, U17602/50/1] | 4.16% | -0.9351% | -1.218% | 1.126% | -0.6145% | 3.561% | -0.453% | -1.756%
O=C(NCC1CC1)c1ccc(-c2cccc(C(=O)NC3CC3)c2)cc1 [SJ000573345-1, R5419/155/1] | -1.419% | 6.153% | 0.2631% | 0.9268% | 0.3479% | 4.094% | 3.005% | 0.894%
Cc1ccc(C(=O)NC2CCCCC2)cc1-c1ccc(C(=O)NCC2CC2)cc1 [SJ000573346-1, R5311/184/6] | 2.896% | 5.045% | -0.3831% | -0.328% | -1.695% | 6.287% | 6.399% | 4.929%
Cc1ccc2c(-c3ccnc(Nc4ccc5c(c4)OCCO5)n3)c(-c3ccc(C(F)(F)F)cc3)nn2n1 [SJ000573347-1, U19201/9/2] | 4.555% | -1.247% | -0.8147% | -1.129% | -1.284% | 1.079% | -1.366% | 1.52%
FC(F)(F)CNc1nccc(-c2cnn3ncccc23)n1 [SJ000573348-1, U14929/198/1] | 8.25% | 5.414% | 9.976% | 2.938% | 3.221% | 10.23% | 26.7% | 21.18%
NC(=O)c1ccc2c(-c3ccnc(NCCCO)n3)c(-c3ccc(F)cc3)nn2c1 [SJ000573349-1, U15445/74/1] | 6.72% | 3.481% | -1.938% | 8.993% | 0.07673% | 4.269% | 0.006279% | 3.919%
CC(=O)Nc1cccc(C#Cc2cncnc2Nc2ccc(OCc3cccc(F)c3)c(Cl)c2)n1 [SJ000573352-1, U17741/29/4] | -2.536% | 2.98% | -3.127% | -1.039% | -1.648% | 1.614% | 2.175% | 0.4059%
CCc1ccc(Oc2nccc(-c3c(-c4ccc(F)cc4)ncn3C3CCNCC3)n2)cc1 [SJ000573353-1, JB42215-197B1] | 58.08% | 9.775% | 2.88% | 7.09% | 3.582% | 6.147% | 7.571% | 8.087%
Cc1cc(-c2ccccn2)cc(C)c1/C=C/c1cncc(-c2nn[nH]n2)c1 [SJ000573354-1, U12068/128/1] | -4.309% | 0.3268% | -3.491% | -1.071% | -0.7476% | 1.519% | -0.7703% | 1.124%
Nc1nonc1-c1nc2cnccc2n1C1CCCCC1 [SJ000573355-1, SD100950-004A1] | 15.53% | 8.293% | 13.87% | -4.008% | 31.12% | 7.234% | 40.98% | 17.92%
O=C1Nc2ccccc2/C1=C/Nc1ccc2[nH]c(=O)[nH]c2c1 [SJ000573356-1, U7003/61/1] | 4.722% | 1.313% | 0.8831% | 4.187% | 0.9059% | 61.37% | 43.08% | 2.265%
Nc1nc(-c2ccc(F)cc2)c(-c2ccc3ncccc3n2)s1 [SJ000573357-1, R5931/120/1] | 7.658% | -0.6603% | 0.9588% | 0.3459% | -0.2788% | 3.49% | -0.2605% | 3.577%
CCS(=O)(=O)c1ccc(OC)c(Nc2ncc(-c3cccc(OC)c3)o2)c1 [SJ000573358-1, U15747/93/1] | 1.123% | 8.053% | -1.141% | -2.224% | 1.703% | 73.64% | 70.44% | 5.914%
CCCCOCCOc1nc(-c2ccc(C(=O)O)c(F)c2)sc1C [SJ000573474-2, AC 261066] | 2.475e-05% | 1.422% | 12.33% | 1.286% | 0.9412% | 4.751% | 12.22% | 6.265%
CC1(C)CCC(C)(C)c2cc(C3(c4ccc5cc(C(=O)O)ccc5c4)SCCS3)ccc21 [SJ000573478-2, MM 11253] | -4.46% | -3.669% | 0.01284% | 1.802% | 0.2271% | 2.534% | 1.741% | 1.985%
CCOC(=O)C1=C(N)Oc2ccc(Br)cc2[C@H]1[C@H](C#N)C(=O)OCC [SJ000574273-1, HA14-1] | -0.6917% | 4.094% | 0.956% | 0.5476% | -0.1514% | 2.194% | 14.02% | 6.381%
